# Values of other authors, collected in patent publication US12605432B2, “Combinations for antigen based therapy” (Diamyd Medical AB, priority 2014, dated 2026).
# Read-outs that look alike come from different tables or passages of the source.
# Legend:
# [1] = tested on: high risk individuals
# [2] = tested on: blood glucose (BG) concentrations in patients; conditions: diabetic and nondiabetic patients in general clinical practice
# [3] = tested on: residual insulin secretion in T1D patients; conditions: in vivo
# [4] = tested on: T1D in NOD mice; conditions: mouse, in vivo
# [5] = tested on: dendritic cells (DCs)
# [6] = tested on: macrophage cultures
# [7] = tested on: DCs; conditions: decreased CD40, CD80, CD86, low IL-12, enhanced IL-10 secretion
# [8] = tested on: mouse islet allografts; autoimmune diabetes
# [9] = tested on: B cells, dendritic cells and T cells
compound,measurement,setting,value
Insulin: β cell specific auto-antigen,prevention of diabetes,[1]; oral administration,may have a slight effect
same,prevention of diabetes,[1]; parenteral administration (DPT),no effect
CNC(=O)c1cc(Oc2ccc(NC(=O)Nc3ccc(Cl)c(C(F)(F)F)c3)cc2)ccn1 [sorafenib],blood glucose (BG),[2],significant declines in BG
CC1=NS(=O)(=O)c2cc(Cl)ccc2N1 [diazoxide],effect of protective agents,[3],no or transient effect
FC(F)(F)c1ccc(CNc2ccc(Cc3c[nH]c4ncccc34)cn2)cc1 [PLX647],effect on T1D in NOD mice,[4],only marginal efficacy
NC(=O)c1cccnc1 [nicotinamide],effect of protective agents,[3],no or transient effect
CC(C)Cc1ccc(C(C)C(=O)O)cc1 (stereo not shown) [ibuprofen],expression level of total MHC molecules and co-stimulatory molecules on DCs,[5],increased
same,phagocytic activity of DCs,[5],did not inhibit
same,MHC class I and class II-restricted presentation of antigen,[5]; dendritic cells,inhibit MHC class I and class II-restricted presentation of antigen
Cc1ccc(NC(=O)c2ccc(CN3CCN(C)CC3)cc2)cc1Nc1nccc(-c2cccnc2)n1 [imatinib],effect on T1D in NOD mice,[4],prevented and reversed T1D
same,IL-10 secretion,[6],induced secretion of anti-inflammatory IL-10
"C=C1/C(=C\C=C2/CCC[C@]3(C)[C@@H]([C@H](C)CCCC(C)(C)O)CC[C@@H]23)C[C@@H](O)C[C@@H]1O [1,25-Dihydroxyvitamin D(3)]",DC phenotype,[7],induces DCs with a tolerogenic phenotype
same,tolerance to islet allografts,[8]; mouse,induced tolerance to mouse islet allografts
same,diabetes development,[8]; non-hypercalcemic doses,inhibited diabetes development
same,expression of IL-10 by dendritic cells and T cells,[9],enhances
same,expression of IgE by B cells,[9],inhibits
